Results on one substance are retold here after US20100221241A1, “C[…] ENVELOPE-BASED IMMUNOGEN THAT SIMU[…] RECEPTOR AND […] SITES” (UNIVERSITY OF MARYLAND BIOTECHNOLOGY INSTITUTE, priority 2005, published 2010).

Assay [1] deals with trimers (soluble gp120 trimer). Kind of assay: Surface Plasmon Resonance binding to trimers. Details: species or system HIV. As to conditions: compared with monomeric CD4M9. An excerpt: Recently, the X-ray crystal structure of free gp120 was solved (1) and along with X-ray tomography images of envelope spikes (3), used to build a computational model of the envelope trimer (1). […] The line between the binding sites is a “ruler” divided into 1 nm units, which was used to estimate distances between binding sites.

Another assay concerns HIV. To be noted: compared with monomeric CD4M9; used with surface HIV virion; cited from earlier work.

No end group written: not given here.

As to “bi-CD4M9-MS: bivalent polypeptide containing two CD4M9 moieties separated by polyethylene glycol linker placing the binding residues 5.2 nm apart (CNLATCQLTCKSLGLLGKCAGSFCACGP; cysteine pairing not given here; also: bivalent: two CD4M9 moieties joined by a polyethylene glycol linker)”, in assay [1], the “forward rate constant for binding” value was “significantly different from monomeric CD4M9”. Besides, in the assay on HIV, the HIV inhibition result is “more potent HIV inhibition than monomeric CD4M9”.
